{"source": "patent US12121525B2", "about": "“Methods for treating GI syndrome and graft versus host disease” (Sloan Kettering Institute for Cancer Research, priority 2007, dated 2024)", "key": {"splenic T cells": {"tested_on": "splenic T cells", "experiment": "Platform generation in T cells after AICD induction", "settings": "500 nM; not shown"}, "C57BL/6 hepatocytes [1]": {"tested_on": "C57BL/6 hepatocytes", "format": "cell-based", "settings": "200 nM, CTL-treated asmase−/− hepatocytes", "procedure": "Whereas Fas-mediated apoptotic death receptor activation requires generation of ceramide-rich platforms in some cell systems, CTL-induced platform generation was assessed in asmase^+/+ and asmase^−/− hepatocytes in the ex vivo model of GvHD. Alloactivated T cells induced rapid generation of ceramide-rich platforms on the surface of the target hepatocytes 10 min following co-incubation (FIG. 16C). Platform generation increased within one minute, peaked at 10 min, and persisted for over 60 min (FIG. 16D). Fas, required for apoptosis in this system, concentrated within the ceramide-rich platform as determined by confocal microscopy.\nPlatforms were detected as previously described. […]; Sigma-Aldrich) for 45 min at 4° C., washed twice in PBS containing 0.1% Triton X-100 and mounted in fluorescent mounting medium (Dako, Carpenteria CA). Fluorescence was detected using an Axiovert S-100 Zeiss fluorescence microscope equipped with a SPOT digital camera. The percentage of cells containing platforms, i.e. those in which the fluorescence condenses onto less than 15% of the cell surface, was determined by counting 150-250 cells per point. Alternately, platforms were identified using a mouse monoclonal anti-ceramide antibody MID 15B4 IgM (1:50 dilution, Alexis Biochemicals), mouse monoclonal anti-Fas CH-11 IgM (1:500 dilution, Upstate Biotechnology) or polyclonal rabbit anti-ASMase antibody 1598 (1:100 dilution) and detected using Cy3-conjugated anti-mouse or anti-rabbit IgM (1:500 dilution, Roche Molecular Biochemicals), respectively. Rabbit polyclonal anti-CD46 (1:1000 dilution, Santa Cruz Biotechnology, Santa Cruz CA) was used as a negative control. In some studies, confocal images were obtained using a Leica TCS SPZ upright confocal microscope. Alternatively, 0.5×10^6hepatocytes were stimulated for the indicated times with CTLs and platform formation was assessed as described."}, "C57BL/6 hepatocytes [2]": {"tested_on": "C57BL/6 hepatocytes", "format": "cell-based", "procedure": "FIGS. 16A-16F. In vivo activated allogeneic CTLs require target hepatocyte ASMase for efficient killing ex vivo. Hepatocytes, isolated as described in Example 1, were coincubated with splenic T cells harvested from lethally-irradiated wild type C57BL/6 recipients 10-14 days following transplantation of LP BM+T cells. FIG. 16A: 2×10^6 GvH-activated CTLs were coincubated with 0.5×10^6 wild type C57BL/6 or B6.MRL.1pr (FasR^−/−) hepatocytes (left panel) in complete medium for 16 hr. […] Apoptosis was quantified following fixation by nuclear bisbenzimide staining. FIG. 16B: asmase^−/− hepatocytes are resistant to apoptosis induced by GvH-activated CTLs. CTL coincubation was performed as in FIG. 16A and apoptosis was quantified 16 hr thereafter. FIG. 16C: Representative images of asmase^+/+ (top left panel) and asmase^−/− (bottom left panel) C57BL/6 hepatocytes following 10 min coincubation in suspension with 2×10^6 GvH-activated T cells. Hepatocytes were fixed and stained with DAPI and Cy-3-labelled anti-ceramide mAb as described in Example 1. Arrows indicate ceramide-rich platform generation on the outer leaflet of the plasma membrane. […] FIG. 16D: Quantification of ceramide-rich platforms in asmase^+/+ and asmase^−/− hepatocytes following incubation with 2×10^6 GvH-activated CTLs. […] Apoptosis was quantified as in FIG. 16A. […] 0.5×10^6 wild type hepatocytes, preincubated with 50 μg/mL nystatin for 30 min and resuspended in RPMI containing 1% lipid-free FBS, were coincubated with 2×10^6 GvH-activated T cells and apoptosis was quantified as in FIG. 16A. […]\nTo assess whether ceramide-mediated raft clustering into membrane platforms is an essential component of cytolytic T cell (CTL)-induced apoptosis of hepatocytes, we blocked raft clustering pharmacologically and examined the impact on alloactivated CTL-induced hepatocyte apoptosis in vitro. […] Co-incubation induced increased hepatocyte apoptosis from a baseline of 4.7±0.7% to 33.8±1.9% by 16 hr, as detected by nuclear morphologic changes (FIG. 16A). […]"}}}
{"smiles": "CCCCCCCCCCCCC/C=C/[C@@H](O)[C@H](CO)NC(=O)CCCCCCCCCCCCCCC", "note": "[C16-ceramide]", "values": [{"measurement": "platform generation in asmase−/− T cells stimulated to undergo AICD", "setting": "splenic T cells", "value": "completely restored"}, {"measurement": "platform formation, % of cells", "setting": "C57BL/6 hepatocytes [1]", "value": "46.3±1.3", "unit": "%"}, {"measurement": "rescue of CTL-induced apoptosis in nystatin-treated hepatocytes", "setting": "C57BL/6 hepatocytes [2]", "value": "unable to overcome cholesterol chelation"}]}
